According to patent US20130059793A1, “EGF RECEPTOR MIMICKING PEPTIDES” (BOARD OF REGENTS, THE UNIVERSITY OF TEXAS SYSTEM, priority 2010, published 2013):
Square brackets hold non-standard residues; d marks the D form. Ends that are not written are not given here.

Legend:
[1] = test system: EGFR ligands EGF, TGFα, and cetuximab; assay: Combinatorial CX7C phage library screening on EGFR ligands; consensus motifs (Table 1); assay type: binding; settings: EGFR ligand(s) on which the overlapping consensus motif was selected
Procedure: Phage peptide screening and binding assays were performed as described (Cardó-Vila et al., 2003). A random phage peptide library displaying the insert CX7C (where X is any amino acid and C is a cysteine residue) was used for the screening; phage input was 3×10^9 transducing units (TU). Antibodies, EGF, or TGF-α (R&D Systems) were coated onto microtiter wells as described (Smith and Scott, 1993). […] Wells were washed twice with PBS, blocked with PBS containing 3% BSA for 1 hr at room temperature (RT), and incubated with the phage library in 50 μl PBS containing 1.5% BSA. After 2 hr at RT, wells were washed ten times with PBS, and phage were recovered by bacterial infection as described (Smith and Scott, 1993; Giordano et al., 2001; Cardó-Vila et al., 2003). […] Purification of phage particles and sequencing of phage single-stranded (ss) DNA were performed as described (Arap et al., 1998; Pasqualini et al., 2001). Phage ssDNA from 96 individual clones from each of the second, third, and fourth rounds of selection were prepared, and inserts were sequenced.
Peptide-matching software (Mandava et al., 2004) was used to identify motifs resembling targeted ligands. To identify motifs resembling targeted ligands among the selected sequences, the inventors used a peptide-matching software program based on RELIC, an established bioinformatics server for combinatorial peptide analysis and identification of protein-ligand interaction sites (Mandava et al., 2004), designed and implemented through Perl 5.8.1. The program calculates similarity based on a pre-defined amino acid window size (defined empirically and experimentally) between an affinity-selected peptide sequence and the target protein sequence from N-terminus to C-terminus in one-residue shifts to fit the best alignment. The peptide-protein similarity scores for each amino acid residue were calculated based on an amino acid substitution matrix modified to adjust for rare residue representation. In this case, similarity scores were calculated based on a 5-residue window, with every pentamer motif in each selected peptide compared to each pentamer segment of the protein. Empirical similarity score thresholds were set with at least three identical residues plus one similar residue between the peptide and the protein segment.
A combinatorial approach was used to identify consensus protein-interacting sites within the EGFR. […] Serial enrichment in all selections was observed (FIGS. 1A-C). Bovine serum albumin (BSA), VEGF, and irrelevant IgG served as negative controls.
A comprehensive protein similarity analysis of selected peptides (n=384) was performed to identify sequences resembling the extracellular domain of the EGFR. Overlapping consensus motifs selected in all three EGFR ligands were identified, mapped, and consolidated within the five dominant candidate regions (Cys227-Cys240, Cys283-Asp290, Cys486-Cys491, Cys547-Cys567, Cys604-Lys618; not accounting for the signal peptide, as indicated) within the primary structure of the receptor (FIG. 2A, yellow highlights).

HN5 tumor cells [2] = assay: Cell viability/proliferation, MTT assay, HN5; assay type: cell-based, human; set-up: cell proliferation / viability: dose or concentration left out as unconfirmed; settings: HN5, MTT, 120 h, increasing concentrations, FIG. 4C
Procedure: (§1) A representative experiment is depicted. […] Bars represent mean±SEM. […] (FIG. 4C) Effect of the synthetic peptides on HN5 tumor cells. […] Viability in the absence of peptide was set to 100%. […] Bars represent mean±SEM. […] Receptors were immunoprecipitated with antibodies against phosphorylated (p) pEGFR and were immunoblotted with anti-phosphotyrosine IgG.
(§2) Tumor cell lines HN5, UMSCC 10A, GEO and EF43.fgf-4 were culture in standard conditions. Viability was assessed by MTT assays (Sigma) as described (Cardó-Vila et al., 2003). […] Samples were read at 570 nm.
Tumor cell lines HN5, UMSCC 10A, GEO and EF43.fgf-4 were maintained in high-glucose DMEM, supplemented with 10% heat-inactivated fetal bovine serum, 20 mM HEPES (pH 7.4), 100 IU/ml penicillin, 100 μg/ml streptomycin, and 4 mM glutamine at 5% CO2 at 37° C. EF43.fgf-4 were grown in G418 as described (Hajitou et al., 2006).

[3] = test system: EF43.fgf-4-derived tumors; assay: Treatment of tumor-bearing mice with peptides and peptidomimetics, tumor volume; assay type: in vivo; settings: Balb/c mice, EF43.fgf-4 tumors, 750 μg/mouse/dose
Text: FIGS. 5A-B: CVRAC-targeted phage homes to tumor. (FIG. 5A) Targeting tumors versus control organs. […] An anti-phage antibody was used for staining H&E staining, with the corresponding fluorescence-based immunostaining, are shown in tumors (FIG. 5A). Tumor-bearing mice received CVRAC phage, CVAAC phage, or insertless control phage as indicated. Cohorts of tumor-bearing mice (n=5 mice/group) were used. A representative experiment is shown. Scale bar, 100 μm. (FIG. 5B) Treatment of tumor-bearing mice with peptides and peptidomimetics. Balb/c mice bearing EF43.fgf-4-derived tumors were divided into size-matched cohorts (n=7 mice/group); individual tumor volumes are represented before (black circles) and after (white circles). Peptides and peptidomimetics were administered at 750 μg/mouse/dose for 5 days. Shown are mean tumor volumes±SEM.
Selective phage homing to tumors was evaluated as described (Hajitou et al., 2006; Arap et al., 1998). […] Each cohort of mice (n=3 per experiment) with size-matched tumors received a set of test and control phage clones. After 6 h, tumor-bearing mice were perfused through the heart with 20 ml of PBS containing 4% paraformaldehyde (PFA). […] For experimental therapy, Balb/c mice bearing EF43.fgf-4-derived tumors were established, and tumor volumes were determined as described (Arap et al., 1998; Hajitou et al., 2006; Ciardiello et al., 1999). […]

[4] = test system: polyclonal anti-CVRAC antibodies; assay: ELISA recognition of peptides by polyclonal anti-CVRAC antibodies (FIG. 4B); assay type: binding, rabbit
Text: as §1
Rabbits were immunized with KLH-conjugated CVRAC and a purified antibody was obtained. […] The capacity of rabbit IgG against CVRAC to recognize CVRAC, D(CARVC), and EGFR was measured by ELISA.
(§3) The EGFR served as an immobilized positive control, and BSA or control peptides (CVAAC) served as immobilized negative controls.

cetuximab = assay: Binding of synthetic peptides to cetuximab (ELISA-based, FIG. 3A, FIG. 4B); settings: FIG. 4B (peptides plated at 10 μg/ml)
Text: (§4) BSA served as an additional negative control, and the EGFR, as a positive control. […] Insertless phage served as a negative control. […] Bars represent mean±SEM.
as §1, §3

HN5 tumor cells [5] = assay: Inhibition by peptide of the cetuximab-dependent inhibition of proliferation, HN5; assay type: cell-based, human; settings: HN5, with cetuximab; 60 μM or 180 μM CVRAC, FIG. 4A
Procedure: as §1, §2

GEO tumor cells = assay: Inhibition by peptide of the cetuximab-dependent inhibition of proliferation, GEO; assay type: cell-based, human; settings: with cetuximab
Procedure: as §2

[6] = Nuclear magnetic resonance (NMR)-spectroscopy interactions; assay type: binding
[7] = test system: binding of cetuximab to the EGFR; assay: ELISA inhibition of binding of cetuximab to the EGFR by synthetic peptides (FIG. 3B, FIGS. 7A-C); settings: for inhibition of binding of cetuximab to the EGFR: ELISA, FIG. 3B; for initial functional screen of consensus motif panel (n=15) with cetuximab: FIGS. 7A-C
Text: as §4
Similar methodologies have been applied to therapeutic (Binder et al., 2006; Binder et al., 2007; Riemer et al., 2005) or diagnostic (Jaalouk et al., 2007) antibodies in a strategy that could reveal mechanisms of action (Binder et al., 2007), identify biological reagents for immunization (Riemer et al., 2005), or discover unrecognized antigens (Jaalouk et al., 2007).

EGFR = assay: EGF-induced EGFR autophosphorylation (immunoprecipitation, anti-phosphotyrosine blot); assay type: cell-based, human; settings: HN5 tumor cells, EGF 15 min, FIG. 4E
Text: as §1

| Substance | Selected on [1] | also measured |
| --- | --- | --- |
| AQQCSGRCRGKSPSD [synthetic EGFR-mimicking peptide] | EGF & TGFα |  |
| CKDTC [synthetic EGFR-mimicking peptide] | All EGFR ligands |  |
| CLPQAMNIT [synthetic EGFR-mimicking peptide] | Cetuximab |  |
| CPAGVM [synthetic EGFR-mimicking peptide] | Cetuximab |  |
| CQKCDPSC | Cetuximab & TGFα |  |
| CRKFRDEATC [synthetic EGFR-mimicking peptide] | All EGFR ligands |  |
| CSPEGC (also: cyclic, ring type not given here) [synthetic EGFR-mimicking peptide] | All EGFR ligands |  |
| CTGPGLEGCPTNGPK [synthetic EGFR-mimicking peptide] | All EGFR ligands |  |
| CTGRGPDNCIQ [synthetic EGFR-mimicking peptide] | All EGFR ligands |  |
| CVRAC [synthetic cyclic peptide, EGFR residues 283-287] |  | cell proliferation / viability (HN5 tumor cells [2]): proliferated much less; therapeutic efficacy, tumor growth [3]: showed therapeutic efficacy in vivo; recognition by polyclonal anti-CVRAC antibodies [4]: recognized; binding of synthetic peptide to cetuximab (cetuximab): specifically bind to cetuximab; inhibition of the antibody-dependent inhibition of proliferation (HN5 tumor cells [5]): concentration-dependent inhibition; inhibition of the antibody-dependent inhibition of proliferation (GEO tumor cells): concentration-dependent inhibition; interactions by NMR-spectroscopy [6]: Low-affinity interactions (micromolar range); inhibition of binding of cetuximab to the EGFR [7]: Concentration-dependent inhibition; initial functional screen of consensus motif panel (n=15) with cetuximab [7]: not significantly different |
| CVRACGAD (not fully specified (bridges); also: cyclic, ring type and places not given here) [synthetic cyclic peptide, EGFR residues 283-290] | All EGFR ligands | binding of synthetic peptide to cetuximab (cetuximab): specifically bind to cetuximab; inhibition of binding of cetuximab to the EGFR [7]: Concentration-dependent inhibition; initial functional screen of consensus motif panel (n=15) with cetuximab [7]: best concentration-dependent ligand peptide |
| D(CAAVC) ([dC][dA][dA][dV][dC]; cysteine pairing not given here; also: peptidomimetic) [negative control peptidomimetic with a mutation corresponding to EGFR Arg285Ala, reference compound] |  | EGF-induced tyrosine phosphorylation of the EGFR (EGFR): not |
| IIRGRTK [synthetic EGFR-mimicking peptide] | EGF & TGFα |  |
| IQCAHYIDGPHC [synthetic EGFR-mimicking peptide] | All EGFR ligands |  |
| PNGSCW [synthetic EGFR-mimicking peptide] | Cetuximab |  |
| QRNYDLSFL [synthetic EGFR-mimicking peptide] | EGF & TGFα |  |
| THTPPLDPQEL [synthetic EGFR-mimicking peptide] | EGF & TGFα |  |
